{"source": "patent US4810709A", "about": "“Nintrovincaminic acid derivatives having pharmaceutical utility” (Richter Gedeon Vegyeszefi Gyar R.T., priority 1984, dated 1989)", "key": {"in vivo [1]": {"assay": "in vivo", "conditions": "po", "method": "On using the muscle incoordination model (rotarod method) [H. Kwibara et al.: Japan J. Pharmacol. 27, 117 (1977)], after a previous training the animals were selected which could […] for 120 seconds on a horizontal rod of 20 mm in diameter rotating with 12 rpm. A muscle-incoordinating action was stated when the animals fell down from the rotating rod within the time limits."}, "hypobaric hypoxia test": {"assay": "hypobaric hypoxia test", "format": "in vivo", "conditions": "1 h; oral, one hour before, 170 Hgmm; protected = survival longer by 100% than control", "method": "(§1) According to the hypobaric hypoxia test [Baumel J. et al.: Proc. Soc. Bio. N.Y. 132, 629 (1969)], the animals were starved for 16 hours, then treated orally and one hour following the treatment they were allocated in an exsiccator where the pressure was decreased to 170 Hgmm within 20 seconds. The time of survival was registered from this time point up to the last respiration. The animals were considered as protected when they were alive for a time longer by 100% than the average time of survival of the control group. The ED50 value (i.e. the dose which was effective in 50%) was calculated from the percentage of the protected animals by using the probit analysis method."}, "asphyxic anoxia test": {"assay": "asphyxic anoxia test", "format": "in vivo", "conditions": "1 h; oral, one hour before; protected = survival longer by 30% than control", "method": "According to the asphyxic anoxia test [Caillard O. et al.: Life Sci. 16, 1607 (1975(], the animals were starved for 16 hours, then treated orally, and one hour following the treatment they were allocated in tightly closed glass bottles of 100 ml volume. The time of survival was registered as the time interval from closing the bottle up to the last respiration. The animals were considered as protected when they were alive for a time longer by 30% than the average time of survival of the control group.\nas §1"}, "mice [2]": {"tested_on": "mice", "assay": "maximal electroshock model (anticonvulsive)", "format": "in vivo", "conditions": "Mus musculus, po; 20 mA, 0.2 sec.; p.o.; read-out: Anticonvulsive effect, Max. electroshock ED50", "from_the_text": "On using the maximal electroshock model [Swinyard E. A. et at.: J. Pharmacol. Exp. Ther. 106, 319 (1959)], a shock (20 mA, 0.2 sec. HSE Shock Equipment Type 207) was given to mice weighing 22 to 24 g by using corneal electrodes. The animals were considered as protected the tonic extension of the lower extremities of which were abolished."}, "in vivo [3]": {"assay": "in vivo", "set-up": "species or system mice", "conditions": "mouse, po", "from_the_text": "On determining the muscle relaxant activity (traction test), male mice weighing 18 to 22 g were suspended by their upper legs on a horizontal wire of 5 mm in diameter."}, "mice [4]": {"tested_on": "mice", "assay": "metrazole seizure method (anticonvulsive)", "format": "in vivo", "conditions": "Mus musculus, po; 125 mg/kg s.c. pentylenetetrazole; p.o.; read-out: Anticonvulsive effect, Metrazole seizure ED50", "method": "On using the metrazole seizure method [Everett, G. M. and Richards, R. K.: J. Pharmacol. Exp. Ther., 81, 402 (1944)], a subcutaneous dose of 125 mg/kg of pentylenetetrazole was administered to mice after pre-treatment. The persistant clonic convulsions as well as the tonic extensory convulsions abolished by the treatment were registered."}, "[5]": {"tested_on": "isolated guinea pig ileum", "assay": "Inhibition of barium-chloride-induced contraction of guinea pig ileum (spasmolytic activity)", "conditions": "for IC50: Cavia porcellus, read-out: ED50, inhibition of barium-chloride-induced contraction of guinea pig ileum", "method": "The spasmolytic activity of the compounds was determined by using the traditional method, i.e. on the isolated guinea pig ileum [Magnus, R., Pflugers Arch. 102, 123 (1904)]. Papaverine and ethyl (+)-apovincamate used as therapeutic spasmolytics were used as reference drugs."}, "[6]": {"tested_on": "conscious mice under normobaric hypoxia", "assay": "antihypoxic activity on conscious mice under normobaric hypoxia", "format": "in vivo", "conditions": "50 mg/kg i.p.; for Time of survival, % / Time of survival, Mean ± deviation: 96% nitrogen and 4% oxygen; for Time of survival, %: increase over control; for Time of survival, Mean ± deviation: 30 minutes before, control 6.0 ± 1.04 min; for Protection: protected = alive for twofold time of untreated animals", "method": "According to one method, the antihypoxic activity was studied on conscious mice under normobaric hypoxia. Five male mice were placed in a glass cylinder of 3 liters volume flown through by a gas mixture containing 96% of nitrogen and 4% of oxygen. The time interval from the allocation up to the perishment of the animals was measured for 15 minutes as a maximum. The animals were considered as protected when they were alive for a twofold time length as compared to the time of perishment of the untreated animals. The compounds under test were intraperitoneally administered to 10 animals each in a dose of 50 mg/kg of body-weight 30 minutes before allocating in the glass cylinder."}, "internal carotid artery": {"tested_on": "internal carotid artery", "assay": "cerebral blood flow in the internal carotid artery of anaesthetized dogs (vasodilating effect)", "format": "in vivo", "conditions": "1 mg/kg of body-weight intravenous, chloralose-pentobarbital anaesthetized dogs", "method": "(§2) The vasodilating effect was studied in dogs anaesthetized by a chloralose-pentobarbital mixture. […] Electromagnetic flow meters were used for measuring the blood flow. The substances under test were intravenously administered in a dose of 1 mg/kg of body-weight to 6 dogs and the percentage changes of the parameters measured were evaluated. Ethyl (+)-apovincamate, a commonly used therapeutic cerebral vasodilator was employed as reference drug."}, "femoral artery": {"tested_on": "femoral artery", "assay": "extremital blood flow in the femoral artery of anaesthetized dogs (vasodilating effect)", "format": "in vivo", "conditions": "1 mg/kg of body-weight intravenous, chloralose-pentobarbital anaesthetized dogs", "method": "as §2"}, "[7]": {"conditions": "isolated guinea pig ileum, barium chloride"}}, "note": "Counter-ions that a name gives are not always drawn. Like-named read-outs stand apart in the source and are kept apart here.", "data": [{"compound": "CCC1(c2ccccc2)NC(=O)N(C)C1=O", "note": "(centres unmarked) [Mephenytoin]", "values": [{"measurement": "TD50", "setting": "in vivo [1]", "value": 78.6, "unit": "mg/kg"}, {"measurement": "ED50", "setting": "hypobaric hypoxia test", "value": "> 80", "unit": "mg/kg"}, {"measurement": "ED50", "setting": "asphyxic anoxia test", "value": "> 80", "unit": "mg/kg"}]}, {"compound": "CCOC(=O)C1=CC2(CC)CCCN3CCc4c(n1c1cccc([N+](=O)[O-])c41)C32", "note": "(single isomer, unassigned) [ethyl 9-nitroapovincamate monohydrochloride]", "values": [{"measurement": "ED50", "setting": "mice [2]", "value": 25.6, "unit": "mg/kg"}, {"measurement": "TD50", "setting": "in vivo [1]", "value": "> 180", "unit": "mg/kg"}, {"measurement": "ED50", "setting": "hypobaric hypoxia test", "value": "> 50", "unit": "mg/kg"}, {"measurement": "TD50", "setting": "in vivo [3]", "value": "> 180", "unit": "mg/kg"}, {"measurement": "ED50", "setting": "asphyxic anoxia test", "value": 42.7, "unit": "mg/kg"}, {"measurement": "ED50", "setting": "mice [4]", "value": 27.6, "unit": "mg/kg"}]}, {"compound": "COc1ccc(Cc2nccc3cc(OC)c(OC)cc23)cc1OC", "note": "[Papaverine, reference compound]", "values": [{"measurement": "IC50", "setting": "[5]", "value": 5.4, "unit": "mg/L"}]}, {"compound": "Acetoxyethyl 9-nitroapovincamate", "values": [{"measurement": "ED50, inhibition of barium-chloride-induced contraction of guinea pig ileum", "setting": "[5]; [7]", "value": 0.4, "unit": "mg/L"}, {"measurement": "Time of survival, %", "setting": "[6]", "value": 68, "unit": "%"}, {"measurement": "Time of survival, Mean ± deviation", "setting": "[6]", "value": "10.1 ± 3.51", "unit": "min"}, {"measurement": "Protection", "setting": "[6]", "value": 30, "unit": "%"}]}, {"compound": "CCOC(=O)C1=CC2(CC)CCCN3CCc4c(n1c1cc([N+](=O)[O-])ccc41)C32", "note": "(single isomer, unassigned) [Ethyl 11-nitroapovincamate, ethyl 11-nitroapovincamate]", "values": [{"measurement": "Time of survival, %", "setting": "[6]", "value": 83, "unit": "%"}, {"measurement": "Time of survival, Mean ± deviation", "setting": "[6]", "value": "11.0 ± 3.35", "unit": "min"}, {"measurement": "Protection", "setting": "[6]", "value": 50, "unit": "%"}]}, {"compound": "CCOC(=O)C1=C[C@]2(CC)CCCN3CCc4c(n1c1ccccc41)[C@@H]32", "note": "[Ethyl (+)-apovincamate, reference compound]", "values": [{"measurement": "IC50", "setting": "[5]; [7]", "value": 2, "unit": "mg/L"}, {"measurement": "Circulatory effects (change in %): Carotid artery flow", "setting": "internal carotid artery", "value": "+30%"}, {"measurement": "Time of survival, %", "setting": "[6]", "value": 7, "unit": "%"}, {"measurement": "Time of survival, Mean ± deviation", "setting": "[6]", "value": "6.4 ± 1.58", "unit": "min"}, {"measurement": "Circulatory effects (change in %): Femoral flow", "setting": "femoral artery", "value": "+15%"}, {"measurement": "ED50", "setting": "hypobaric hypoxia test", "value": "> 50", "unit": "mg/kg"}, {"measurement": "ED50", "setting": "asphyxic anoxia test", "value": "> 50", "unit": "mg/kg"}]}, {"compound": "CCOC(=O)C1=CC2(CC)CCCN3CCc4c(n1c1cccc([N+](=O)[O-])c41)C32", "note": "(single isomer, unassigned) [Ethyl 9-nitroapovincamate, ethyl 9-nitroapovincamate]", "values": [{"measurement": "IC50", "setting": "[5]; [7]", "value": 1, "unit": "mg/L"}, {"measurement": "Circulatory effects (change in %): Carotid artery flow", "setting": "internal carotid artery", "value": "+95%"}, {"measurement": "Time of survival, %", "setting": "[6]", "value": 123, "unit": "%"}, {"measurement": "Time of survival, Mean ± deviation", "setting": "[6]", "value": "13.4 ± 2.37", "unit": "min"}, {"measurement": "Protection", "setting": "[6]", "value": 80, "unit": "%"}, {"measurement": "Circulatory effects (change in %): Femoral flow", "setting": "femoral artery", "value": 0, "unit": "%"}]}, {"compound": "CCCOC(=O)C1=C[C@]2(CC)CCCN3CCc4c(n1c1cccc([N+](=O)[O-])c41)[C@@H]32", "note": "[Propyl 9-nitroapovincamate]", "values": [{"measurement": "ED50, inhibition of barium-chloride-induced contraction of guinea pig ileum", "setting": "[5]; [7]", "value": 0.2, "unit": "mg/L"}]}, {"compound": "CCC12C=C(C(=O)OCCO)n3c4c(c5c([N+](=O)[O-])cccc53)CCN(CCC1)C42", "note": "(single isomer, unassigned) [2-Hydroxyethyl 9-nitroapovincamate, 2-hydroxyethyl 9-nitroapovincamate]", "values": [{"measurement": "Circulatory effects (change in %): Carotid artery flow", "setting": "internal carotid artery", "value": "+45%"}, {"measurement": "Circulatory effects (change in %): Femoral flow", "setting": "femoral artery", "value": "+10%"}]}, {"compound": "CC[C@]12CCCN3CCc4c(n(c5ccccc45)[C@@](O)(C(=O)OC)C1)[C@@H]32", "note": "[Vincamine, reference compound]", "values": [{"measurement": "Time of survival, %", "setting": "[6]", "value": 2, "unit": "%"}, {"measurement": "Time of survival, Mean ± deviation", "setting": "[6]", "value": "6.1 ± 1.30", "unit": "min"}]}]}
